Assay results published in patent US11179412B2, “Methods of treating conditions involving elevated inflammatory response” (University of Pittsburgh—Of the Commonwealth System of …, priority 2017, dated 2021).
Structures can show the parent of a compound that is named as a salt.

Test system: STING activation (IFNβ release) in iBMDMs
Test: IFNβ release ELISA after STING ligand (or LPS) stimulation, iBMDMs
Type: cell-based, mouse
Excerpt: Commercially available enzyme-linked immunosorbent assay (ELISA) kits were used to measure the concentrations of mouse IFNβ (Thermo Fisher Scientific) or human IFNβ (Thermo Fisher Scientific) in culture medium according to the manufacturer's instructions. […]

[1] = iBMDMs, 3′3′-cGAMP 10 μg/ml, 16 hours, compound 10 μM

Row | SMILES | fold increase in IFN-β release [1] | fold increase in IFN-β release (16 h, 10 µM)
1 | CO[C@H]1C[C@@H]2CC[C@@H](C)[C@@](O)(O2)C(=O)C(=O)N2CCCC[C@H]2C(=O)O[C@H]([C@H](C)C[C@@H]2CC[C@@H](OCCO)[C@H](OC)C2)CC(=O)[C@H](C)/C=C(\C)[C@@H](O)[C@@H](OC)C(=O)[C@H](C)C[C@H](C)/C=C/C=C/C=C/1C [Everolimus (RAD001), Everolimus] | 1.01 fold | 
2 | C=C1C[C@@H]2[C@H](CC[C@]3(C)C(=O)CC[C@@H]23)[C@@]2(C)C=CC(=O)C=C12 [Exemestane] |  | 1.11 fold
3 | Cc1nc(C(=O)NCC(=O)O)c(O)c2ccc(Oc3ccccc3)cc12 [FG-4592] | 0.73 fold | 
4 | CC1=C(C(=O)OC2CCCCC2)C(c2ccc([N+](=O)[O-])cc2)C2=C(CC(C)(C)CC2=O)N1 (centres unmarked) [FLI-06] | 2.06 fold | 
5 | CCOC(=O)C1=C(C)NC(C)=C(C(=O)OC)C1c1cccc(Cl)c1Cl (centres unmarked) [Felodipine] | 0.69 fold | 
6 | CCOC(=O)c1ccc(NC2CCCCC2)c(N)c1 [Ferrostatin-1 (Fer-1), Ferrostatin-1] | 2.54 fold | 
7 | O=C(Nc1nc2cccc(-c3ccc(CN4CCS(=O)(=O)CC4)cc3)n2n1)C1CC1 [Filgotinib (GLPG0634), Filgotinib] | 2.35 fold | 
8 | CC(C)(C)NC(=O)[C@H]1CC[C@H]2[C@@H]3CC[C@H]4NC(=O)C=C[C@]4(C)[C@H]3CC[C@]12C [Finasteride] | 0.85 fold | 
9 | CCCCCCCCc1ccc(CCC(N)(CO)CO)cc1 [Fingolimod (FTY720) HCl, Fingolimod] |  | 0.77 fold
10 | CC(C)n1c(/C=C/C(O)CC(O)CC(=O)O)c(-c2ccc(F)cc2)c2ccccc21 (centres unmarked) [Fluvastatin Sodium] | 0.32 fold | 
11 | COCCCC/C(=N\OCCN)c1ccc(C(F)(F)F)cc1 [Fluvoxamine maleate] | 1.80 fold | 
12 | COc1ccc(C[C@@H](C)NC[C@H](O)c2ccc(O)c(NC=O)c2)cc1.COc1ccc(C[C@@H](C)NC[C@H](O)c2ccc(O)c(NC=O)c2)cc1.O=C(O)/C=C/C(=O)O [Formoterol Hemifumarate] | 1.76 fold | 
13 | C=C[C@@]1(C)CC(=O)[C@]2(O)[C@@]3(C)[C@@H](O)CCC(C)(C)[C@@H]3[C@H](O)[C@H](OC(C)=O)[C@@]2(C)O1 [Forskolin] | 0.81 fold | 
14 | COc1cc(Nc2ncc(F)c(Nc3ccc4c(n3)N(COP(=O)(O)O)C(=O)C(C)(C)O4)n2)cc(OC)c1OC [Fostamatinib (R788), Fostamatinib] | 0.69 fold | 
15 | C[C@]12CC[C@@H]3c4ccc(O)cc4C[C@@H](CCCCCCCCC[S+]([O-])CCCC(F)(F)C(F)(F)F)[C@H]3[C@@H]1CC[C@@H]2O (some centres unmarked) [Fulvestrant] | 0.52 fold | 
16 | CN[C@@H](C)C(=O)N[C@H](C(=O)N1CCC[C@H]1C(=O)Nc1snnc1-c1ccccc1)C1CCCCC1 [GDC-0152] | 1.79 fold | 
17 | CS(=O)(=O)N1CCN(Cc2cc3nc(-c4cccc5[nH]ncc45)nc(N4CCOCC4)c3s2)CC1 [GDC-0941] | 2.13 fold | 
18 | CNc1nc(Nc2cn(C(C)(C)C#N)nc2C)ncc1C(F)(F)F [GNE-0877] | 1.32 fold | 
19 | CCNc1nc(Nc2cc(F)c(C(=O)N3CCOCC3)cc2OC)ncc1C(F)(F)F [GNE-7915] | 2.41 fold | 
20 | CNc1nc(Nc2cnn([C@H]3CCN(C4COC4)C[C@@H]3F)c2Cl)ncc1C(F)(F)F [GNE-9605] | 1.10 fold | 
21 | NC(=O)c1cccc(-c2cc(Nc3ccc(OC(F)(F)F)cc3)ncn2)c1 [GNF-2] | 0.56 fold | 
22 | O=C(NCCO)c1cccc(-c2cc(Nc3ccc(OC(F)(F)F)cc3)ncn2)c1 [GNF-5] | 2.94 fold | 
23 | CC1=C(C(=O)Nc2cc3cn[nH]c3cc2F)C(c2ccc(C(F)(F)F)cc2)CC(=O)N1 (centres unmarked) [GSK429286A] | 2.79 fold | 
24 | C[C@@H](Oc1cc(-n2cnc3ccc(CN4CCN(C)CC4)cc32)sc1C(N)=O)c1ccccc1C(F)(F)F [GSK461364] | 0.21 fold | 

Row | SMILES | fold increase in IFN-β release [1] | fold increase in IFN-β release (16 h, 10 µM)
25 | CCn1c(-c2nonc2N)nc2c(C#CC(C)(C)O)ncc(OC[C@H]3CCCNC3)c21 [GSK690693] | 1.12 fold | 
26 | CC(C)c1noc(N2CCC(COc3ccc(-c4ccc(S(C)(=O)=O)cc4)nc3)CC2)n1 [GSK1292263] | 2.58 fold | 
27 | CCc1cc(Nc2nccc(-c3c(-c4ccc(OC)c(C(=O)Nc5c(F)cccc5F)c4)nc4ccccn34)n2)c(OC)cc1N1CCC(N2CCN(S(C)(=O)=O)CC2)CC1 [GSK1904529A] | 1.05 fold | 
28 | Cn1cc(-c2ccc3c(c2)CCN3C(=O)Cc2cccc(C(F)(F)F)c2)c2c(N)ncnc21 [GSK2606414] | 1.40 fold | 
29 | Cc1cccc(CC(=O)N2CCc3c2ccc(-c2cn(C)c4ncnc(N)c24)c3F)n1 [GSK2656157] | 1.58 fold | 
30 | CCOC(=O)CCNc1cc(N2CCc3ccccc3CC2)nc(-c2ccccn2)n1.Cl [GSK J4 HCl] | 0.40 fold | 
31 | Cc1cc(SCc2sc(-c3ccc(C(F)(F)F)c(F)c3)nc2C)ccc1OCC(=O)O [GW0742] | 0.13 fold | 
32 | COc1ccc(COc2ccc(Cc3cnc(N)nc3N)cc2OC)cc1 [GW2580] | 1.21 fold | 
33 | Cl.O=C(O)Cc1cccc(OCCCN(Cc2cccc(C(F)(F)F)c2Cl)CC(c2ccccc2)c2ccccc2)c1 [GW3965 HCl] | 0.74 fold | 
34 | CC(C)c1onc(-c2c(Cl)cccc2Cl)c1COc1ccc(/C=C/c2cccc(C(=O)O)c2)c(Cl)c1 [GW4064] | 1.26 fold | 
35 | O=C(O)CCc1ccc(NCc2cccc(Oc3ccccc3)c2)cc1 [GW9508] | 0.80 fold | 
36 | O=C(Nc1ccccc1)c1cc([N+](=O)[O-])ccc1Cl [GW9662] | 2.50 fold | 
37 | CC(C)c1cc(-c2n[nH]c(=O)n2-c2ccc3c(ccn3C)c2)c(O)cc1O [Ganetespib (STA-9090), Ganetespib] | 1.80 fold | 
38 | C[C@@H]1C(=O)O[C@H]2C[C@@]34[C@H]5C[C@@H](C(C)(C)C)[C@]36[C@@H](OC(=O)[C@@H]6O)O[C@@]4(C(=O)O5)[C@]21O [Ginkgolide A] | 2.14 fold | 
39 | CC1C(=O)OC2C(O)C34C5CC(C(C)(C)C)C36C(OC(=O)C6O)OC4(C(=O)O5)C12O (centres unmarked) [Ginkgolide B] | 1.44 fold | 
40 | Cc1ccc(S(=O)(=O)NC(=O)NN2CC3CCCC3C2)cc1 (centres unmarked) [Gliclazide] | 1.93 fold | 
41 | COc1ccc2c(c1)C(=O)N(CCc1ccc(S(=O)(=O)NC(=O)NC3CCCCC3)cc1)C(=O)C2(C)C [Gliquidone] | 1.20 fold | 
42 | COc1ccc2c(c1)c(C1=C(c3c[nH]c4ccccc34)C(=O)NC1=O)cn2CCCN(C)C [Go 6983] | 0.26 fold | 
43 | Fc1cc(F)c2c(c1)C1C=CCC1C(c1cccnc1)N2 (centres unmarked) [Golgicide A] | 4.19 fold | 
44 | Cl.Cl.O=S(=O)(NCCNC/C=C/c1ccc(Br)cc1)c1cccc2cnccc12 [H 89 2HCl] | 1.91 fold | 
45 | CCOC(=O)C1=C(N)Oc2ccc(Br)cc2C1C(C#N)C(=O)OCC (centres unmarked) [HA14-1] | 0.45 fold | 
46 | CC(C)c1ccc(NC(=O)Cn2cnc3c2c(=O)n(C)c(=O)n3C)cc1 [HC-030031] | 1.05 fold | 
47 | Cc1cc(C)c(S(=O)(=O)n2cc(C)cc2C)c(C)c1 [HJC0350] | 1.05 fold | 
